We go through 2 molecules from BindingDB's records for doi:10.1016/j.chembiol.2005.07.009 (University of Dundee, 2005).

The target in test [1] is cAMP-specific 3',5'-cyclic phosphodiesterase 4A (Homo sapiens, UniProt P27815). The test can be described thus: PDE 4A Assay. Particulars: pH 7.5; 30 °C. The protocol: Phosphodiesterase 4A (PDE4A) was assayed using an Sf9-expressed GST-fusion, and activity was monitored by hydrolysis of [3H]cAMP to [3H]AMP using the PDE-SPA kit from Amersham Pharmacia Biotech.
Chain of cAMP-specific 3',5'-cyclic phosphodiesterase 4A (P27815 whole entry, the tested form may be a part): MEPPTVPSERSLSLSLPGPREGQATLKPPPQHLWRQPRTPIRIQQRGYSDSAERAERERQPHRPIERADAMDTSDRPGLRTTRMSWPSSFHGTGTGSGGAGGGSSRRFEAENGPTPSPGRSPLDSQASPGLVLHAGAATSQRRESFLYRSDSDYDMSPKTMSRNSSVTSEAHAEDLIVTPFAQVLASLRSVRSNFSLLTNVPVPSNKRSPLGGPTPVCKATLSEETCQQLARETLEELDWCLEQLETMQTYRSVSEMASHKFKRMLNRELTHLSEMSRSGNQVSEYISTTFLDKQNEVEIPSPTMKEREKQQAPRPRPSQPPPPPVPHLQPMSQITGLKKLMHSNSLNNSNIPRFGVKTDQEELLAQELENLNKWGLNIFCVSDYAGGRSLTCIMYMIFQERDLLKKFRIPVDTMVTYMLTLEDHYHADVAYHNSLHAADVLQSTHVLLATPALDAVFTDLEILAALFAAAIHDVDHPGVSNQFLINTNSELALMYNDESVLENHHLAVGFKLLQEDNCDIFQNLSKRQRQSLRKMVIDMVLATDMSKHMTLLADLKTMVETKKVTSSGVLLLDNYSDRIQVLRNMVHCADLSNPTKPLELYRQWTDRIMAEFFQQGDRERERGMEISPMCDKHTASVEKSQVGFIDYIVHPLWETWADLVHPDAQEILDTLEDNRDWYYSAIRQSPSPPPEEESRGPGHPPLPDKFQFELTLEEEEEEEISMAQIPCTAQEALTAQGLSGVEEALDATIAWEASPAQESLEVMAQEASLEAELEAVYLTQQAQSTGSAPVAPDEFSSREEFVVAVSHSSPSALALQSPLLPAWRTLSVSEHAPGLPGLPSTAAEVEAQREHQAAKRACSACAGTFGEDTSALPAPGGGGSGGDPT
The next test has as its target Endochitinase B1 [T138A] (Aspergillus fumigatus, UniProt Q873X9, T138A). The test can be described thus: Enzyme Inhibition Assay.
A further test deals with Endochitinase B1 [E322A] (Aspergillus fumigatus, UniProt Q873X9, E322A). In words: Enzyme Inhibition Assay.
A further test deals with Endochitinase B1 [A217G] (Aspergillus fumigatus, UniProt Q873X9, A217G). The test can be described thus: Enzyme Inhibition Assay.
Another test addresses Endochitinase B1 [E177A] (Aspergillus fumigatus, UniProt Q873X9, E177A). In words: Enzyme Inhibition Assay.
A further test concerns the target Endochitinase B1 [D175A] (Aspergillus fumigatus, UniProt Q873X9, D175A). The test can be described thus: Enzyme Inhibition Assay.
A further test has as its target Endochitinase B1 [M243A] (Aspergillus fumigatus, UniProt Q873X9, M243A). The test can be described thus: Enzyme Inhibition Assay.
A further test concerns the target Endochitinase B1 [R301K] (Aspergillus fumigatus, UniProt Q873X9, R301K). The test can be described thus: Enzyme Inhibition Assay.
The target of a further test is Endochitinase B1 [Y245F] (Aspergillus fumigatus, UniProt Q873X9, Y245F). The test can be described thus: Enzyme Inhibition Assay.
The target of another test is Endochitinase B1 [D246A] (Aspergillus fumigatus, UniProt Q873X9, D246A). In words: Enzyme Inhibition Assay.

Consider `Cn1c(=O)c2c(ncn2C)n(C)c1=O`, for which the 50% inhibitory concentration (IC50) in [1] stood at 747 µM.

As for `CC(=O)CCCCn1c(=O)c2c(ncn2C)n(C)c1=O` [1-(5-Oxohexyl)theobromine (pentoxifylline)], the dissociation constant (Kd) at Endochitinase B1 [T138A] is 65 µM; on Endochitinase B1 [E322A], 45 µM; at Endochitinase B1 [A217G], 77 µM; on Endochitinase B1 [E177A], 36 µM; at Endochitinase B1 [D175A], 100 µM; at Endochitinase B1 [M243A], 18 µM. Moreover, the Kd at Endochitinase B1 [R301K] came out at 17 µM; on Endochitinase B1 [Y245F], 64 µM; on Endochitinase B1 [D246A], 62 µM.

By IC50 is commonly meant the concentration at which inhibition is half-maximal. The low end stands for greater potency, the high end for weaker potency. What is called Kd is the free concentration of one partner at which half of the binding sites on the other are occupied at equilibrium, for simple one-to-one binding. Low values mean tighter binding, high ones weaker binding.
